Tested on: 496974-208-R-J2-PDC complex spheroids, growth % test/control
Assay: Anticancer human tumor 496974-208-R-J2-PDC patient-derived pancreatic carcinoma cell line growth inhibition [CLK]
Conditions: for IC50: curve of first compound; for viability, T/C: stronger effect = lower value
In short: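 Multi-cell-type spheroids combined patient-derived tumor cells with HUVEC endothelial cells and human mesenchymal stem cells. Paired agents were dosed in half-log steps down from about clinical Cmax, or from 10 microM where Cmax was unknown.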

[1] = second compound 0.0316 µM, first compound 0.0316 µM
[2] = second compound 0.0316 µM, first compound 0.1 µM
[3] = second compound 0.0316 µM, first compound 0.316 µM
[4] = second compound 0.0316 µM, first compound 1 µM
[5] = second compound 0.0316 µM, first compound 3.16 µM
[6] = second compound 0.0316 µM, first compound 10 µM
[7] = second compound 0.1 µM, first compound 0.0316 µM
[8] = second compound 0.1 µM, first compound 0.1 µM
[9] = second compound 0.1 µM, first compound 0.316 µM
[10] = second compound 0.1 µM, first compound 1 µM
[11] = second compound 0.1 µM, first compound 3.16 µM
[12] = second compound 0.1 µM, first compound 10 µM
[13] = second compound 0.316 µM, first compound 0.0316 µM
[14] = second compound 0.316 µM, first compound 0.1 µM
[15] = second compound 0.316 µM, first compound 0.316 µM
[16] = second compound 0.316 µM, first compound 1 µM
[17] = second compound 0.316 µM, first compound 3.16 µM
[18] = second compound 0.316 µM, first compound 10 µM
[19] = second compound 1 µM, first compound 0.0316 µM
[20] = second compound 1 µM, first compound 0.1 µM
[21] = second compound 1 µM, first compound 0.316 µM
[22] = second compound 1 µM, first compound 1 µM
[23] = second compound 1 µM, first compound 3.16 µM
[24] = second compound 1 µM, first compound 10 µM
[25] = second compound 3.16 µM, first compound 0.0316 µM
[26] = second compound 3.16 µM, first compound 0.1 µM
[27] = second compound 3.16 µM, first compound 0.316 µM
[28] = second compound 3.16 µM, first compound 1 µM
[29] = second compound 3.16 µM, first compound 3.16 µM
[30] = second compound 3.16 µM, first compound 10 µM
[31] = second compound 10 µM, first compound 0.0316 µM
[32] = second compound 10 µM, first compound 0.1 µM
[33] = second compound 10 µM, first compound 0.316 µM
[34] = second compound 10 µM, first compound 1 µM
[35] = second compound 10 µM, first compound 3.16 µM
[36] = second compound 10 µM, first compound 10 µM
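Also: spheroids exposed to the drugs for 7 days before readout.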
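For viability, T/C in this document: 100% = DMSO vehicle control wells.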

SMILES: Nc1ccn(C2OC(CO)C(O)C2(F)F)c(=O)n1 (centres undefined) + CN1CCN(c2cc(C(=O)Nc3cc4cc(-c5cnn(C)c5)ccc4cn3)ccn2)CC1
- IC50 (second compound 0.0316 µM): 959 nM
- IC50 (second compound 0.1 µM): 259 nM
- IC50 (second compound 0.316 µM): < 31.6 nM
- IC50 (second compound 1 µM): < 31.6 nM
- IC50 (second compound 3.16 µM): < 31.6 nM
- IC50 (second compound 10 µM): < 31.6 nM
- viability, T/C [1]: 90.8%
- viability, T/C [2]: 76.9%
- viability, T/C [3]: 62.3%
- viability, T/C [4]: 44%
- viability, T/C [5]: 48.2%
- viability, T/C [6]: 50%
- viability, T/C [7]: 76.3%
- viability, T/C [8]: 57.8%
- viability, T/C [9]: 50.3%
- viability, T/C [10]: 40.6%
- viability, T/C [11]: 38.6%
- viability, T/C [12]: 38.5%
- viability, T/C [13]: 5.11%
- viability, T/C [14]: 5.63%
- viability, T/C [15]: 6.71%
- viability, T/C [16]: 5.91%
- viability, T/C [17]: 5.91%
- viability, T/C [18]: 4.9%
- viability, T/C [19]: 0.42%
- viability, T/C [20]: 0.5%
- viability, T/C [21]: 1.35%
- viability, T/C [22]: 0.4%
- viability, T/C [23]: 2.61%
- viability, T/C [24]: 0.41%
- viability, T/C [25]: 0.53%
- viability, T/C [26]: 0.7%
- viability, T/C [27]: 0.57%
- viability, T/C [28]: 0.47%
- viability, T/C [29]: 0.44%
- viability, T/C [30]: 1.78%
- viability, T/C [31]: 0.28%
- viability, T/C [32]: 1.23%
- viability, T/C [33]: 1.72%
- viability, T/C [34]: 0.25%
- viability, T/C [35]: 2.65%
- viability, T/C [36]: 0.29%

SMILES: O=c1[nH]cc(F)c(=O)[nH]1 + CN1CCN(c2cc(C(=O)Nc3cc4cc(-c5cnn(C)c5)ccc4cn3)ccn2)CC1
- IC50 (second compound 0.0316 µM): 5870 nM
- IC50 (second compound 0.1 µM): 4190 nM
- IC50 (second compound 0.316 µM): < 31.6 nM
- IC50 (second compound 1 µM): < 31.6 nM
- IC50 (second compound 3.16 µM): < 31.6 nM
- IC50 (second compound 10 µM): < 31.6 nM
- viability, T/C [1]: 108%
- viability, T/C [2]: 99.2%
- viability, T/C [3]: 99.3%
- viability, T/C [4]: 76.8%
- viability, T/C [5]: 60.1%
- viability, T/C [6]: 42%
- viability, T/C [7]: 83.5%
- viability, T/C [8]: 83.7%
- viability, T/C [9]: 76.3%
- viability, T/C [10]: 68.1%
- viability, T/C [11]: 54.2%
- viability, T/C [12]: 37.4%
- viability, T/C [13]: 7.23%
- viability, T/C [14]: 6.68%
- viability, T/C [15]: 5.78%
- viability, T/C [16]: 6.41%
- viability, T/C [17]: 6.09%
- viability, T/C [18]: 6.36%
- viability, T/C [19]: 0.41%
- viability, T/C [20]: 0.51%
- viability, T/C [21]: 0.5%
- viability, T/C [22]: 0.43%
- viability, T/C [23]: 0.32%
- viability, T/C [24]: 0.55%
- viability, T/C [25]: 0.44%
- viability, T/C [26]: 0.46%
- viability, T/C [27]: 0.41%
- viability, T/C [28]: 0.57%
- viability, T/C [29]: 0.41%
- viability, T/C [30]: 2.84%
- viability, T/C [31]: 0.24%
- viability, T/C [32]: 0.41%
- viability, T/C [33]: 0.35%
- viability, T/C [34]: 0.27%
- viability, T/C [35]: 1.4%
- viability, T/C [36]: 1.8%

From PubChem BioAssay AID2060615 (Molecular Pharmacology Branch, DTP, NCI, 2025)
